Experimental data reported in article PMC11280325, “Design, Synthesis, and Characterization of Novel Thiazolidine-2,4-Dione-Acridine Hybrids as Antitumor Agents” (Molecules, 2024).
Structures can show the parent of a compound that is named as a salt.

Legend:
MCF-10A = assay: MTT assay, MCF-10A non-cancerous cells; type: cell-based, human; conditions: non-cancerous epithelial breast cells, 48 h incubation
Method: (§1) The non-cancerous cell line MCF-10A (human epithelial breast cells) was cultured in a DMEM F12 medium supplemented with 10% FBS (Invitrogen, Carlsbad, CA, USA), 1× HyClone™ Antibiotic/Antimycotic Solution (GE Healthcare, Piscataway, NJ, USA), insulin, hEGF, and hydrocortisone. The BJ-5ta cells (human dermal fibroblasts) were cultured in a DMEM-M199 4:1 medium mixture, supplemented with 10% FBS and hygromycin B (0.01 mg/mL). The cells were maintained under standard conditions with an atmosphere containing 5% CO2 at 37 °C. Cell viability, estimated by trypan blue exclusion, was consistently greater than 95% before each experiment.
(§2) To evaluate the IC50 (half-maximal inhibitory concentration) and confirm the antiproliferative activity of the tested substances, we employed the colorimetric MTT assay (3-(4,5-dimethylthiazol-2-yl)-2,5-diphenyltetrazolium bromide) (Sigma-Aldrich Chemie, Steinheim, Germany). The cell lines were seeded in 96-well plates at a density of 5 × 10^3 to 10 × 10^3 cells per well. After 24 h, the tested substances, dissolved in the cultivation medium, were added to the cells at final concentrations of 5, 10, 20, and 50 µmol/L. The cells were then incubated for 48 h under standard cultivation conditions. Following the incubation period, MTT was added to each well. The MTT was metabolized by the cells into insoluble formazan crystals, which were subsequently dissolved by adding 100 µL of 10% SDS. After another 24 h, the absorbance was measured at a wavelength of 540 nm using the automated Cytation™ 3 Cell Imaging Multi-Mode Reader (Biotek, Winooski, VT, USA). The experiments were performed in at least three independent repetitions. IC50 values were calculated using a nonlinear regression method.

Bj-5ta = assay: MTT assay, BJ-5ta non-cancerous fibroblasts; type: cell-based, human; conditions: non-cancerous dermal fibroblasts, 48 h incubation
Method: as §1, §2

A549 = assay: MTT assay, A549; type: cell-based, human; conditions: lung adenocarcinoma, 48 h incubation
Method: (§3) The human cancer cell lines HeLa (cervical adenocarcinoma), HCT116 (colorectal adenocarcinoma), A2780 (human ovarian adenocarcinoma), A2780cis (human ovarian adenocarcinoma cisplatin-resistant), Jurkat (acute T-lymphoblastic leukemia), and Hep G2 (hepatocellular carcinoma) were cultured in an RPMI 1640 growth medium (Biosera, Kansas City, MO, USA). The cancer cell lines MDA-MB-231 (triple-negative breast adenocarcinoma), A2058 (human melanoma), U87 (human glioblastoma), PATU 8902 (pancreas adenocarcinoma), and A549 (human lung adenocarcinoma) were cultured in a DMEM medium (Biosera, Kansas City, MO, USA). The media were supplemented with 10% fetal bovine serum (FBS) (Invitrogen, Carlsbad, CA, USA) and 1× HyClone™ Antibiotic/Antimycotic Solution (GE Healthcare, Piscataway, NJ, USA).
as §2

Hep G2 = assay: MTT assay, Hep G2; type: cell-based, human; conditions: hepatocellular carcinoma, 48 h incubation
Method: as §3, §2

A2780 = assay: MTT assay, A2780; type: cell-based, human; conditions: ovarian adenocarcinoma, 48 h incubation
Method: as §3, §2

HeLa = assay: MTT assay, HeLa; type: cell-based, human; conditions: cervical adenocarcinoma, 48 h incubation
Method: as §3, §2

HCT116 = assay: MTT assay, HCT116; type: cell-based, human; conditions: colorectal adenocarcinoma, 48 h incubation
Method: as §3, §2

PATU = assay: MTT assay, PATU 8902; type: cell-based, human; conditions: pancreas adenocarcinoma, 48 h incubation
Method: as §3, §2

A2058 = assay: MTT assay, A2058; type: cell-based; conditions: human melanoma, 48 h incubation
Method: as §3, §2

| IC50 (A549; Homo sapiens, A549, 48 h) [µM] | IC50 (A2780; Homo sapiens, A2780, 48 h) [µM] | IC50 (HeLa; Homo sapiens, HeLa, 48 h) [µM] | IC50 (HCT116) [µM] | melting point | IC50 (A549) [µM] | IC50 (HCT116; Homo sapiens, HCT-116, 48 h) [µM] | IC50 (A2780) [µM] | IC50 (HeLa) [µM] | Compound | IC50 (MCF-10A; Homo sapiens, MCF-10A, 48 h) [µM] | IC50 (Bj-5ta; Homo sapiens, Fibroblast, 48 h) [µM] | IC50 (Hep G2; Homo sapiens, HepG2, 48 h) [µM] | IC50 (PATU; Homo sapiens, PaTu 8902, 48 h) [µM] | IC50 (A2058; Homo sapiens, A2058, 48 h) [µM] | IC50 (MCF-10A) [µM] | IC50 (Bj-5ta) [µM] | IC50 (Hep G2) [µM] | IC50 (PATU) [µM] | IC50 (A2058) [µM] |
| --- | --- | --- | --- | --- | --- | --- | --- | --- | --- | --- | --- | --- | --- | --- | --- | --- | --- | --- | --- |
| > 50 | > 50 | 20.7 ± 5.3 | 6.7 ± 2 | 287 to 288 °C |  |  |  |  | COc1cc(/C=C2\SC(=O)N(Cc3c4ccccc4nc4ccccc34)C2=O)ccc1OCC(=O)Nc1cc(C(F)(F)F)cc(C(F)(F)F)c1 [Compound 12g, 2-(4-{[(5Z)-3-[(Acridin-9-yl)methyl]-2,4-dioxo-1,3-thiazolidin-5-ylidene]methyl}-2-methoxyphenoxy)-N-[3,5-bis(trifluoromethyl)phenyl]acetamide] | > 50 | > 50 | > 50 | > 50 | > 50 |  |  |  |  |  |
|  | > 50 | 6.2 ± 1.3 |  | 250 to 251 °C (dec.) | 16.4 ± 1.85 | 8.8 ± 3.7 |  |  | O=C(COc1ccc(/C=C2\SC(=O)N(Cc3c4ccccc4nc4ccccc34)C2=O)cc1)Nc1cccc(C(F)(F)F)c1 [Compound 7f, 2-(4-{[(5Z)-3-[(Acridin-9-yl)methyl]-2,4-dioxo-1,3-thiazolidin-5-ylidene]methyl}phenoxy)-N-[3-(trifluoromethyl)phenyl]acetamide] | 9.8 ± 1.9 | 32.6 ± 7.4 | 28.1 ± 5.5 | 11.5 ± 2.06 | > 50 |  |  |  |  |  |
| > 50 | > 50 | 44.9 ± 4.2 |  | > 300 °C (dec.) |  | 47.6 ± 3.8 |  |  | O=C(COc1ccc(/C=C2\SC(=O)N(Cc3cccc4cc5ccccc5nc34)C2=O)cc1)Nc1ccc([N+](=O)[O-])cc1 [Compound 8d, 2-(4-{[(5Z)-3-[(Acridin-4-yl)methyl]-2,4-dioxo-1,3-thiazolidin-5-ylidene]methyl}phenoxy)-N-(4-nitrophenyl)acetamide] | > 50 | > 50 | > 50 | > 50 | > 50 |  |  |  |  |  |
|  |  |  | > 50 |  | 32.4 ± 7.6 |  | > 50 | 19.3 ± 4.6 | O=C(COc1ccc(/C=C2\SC(=O)N(Cc3c4ccccc4nc4ccccc34)C2=O)cc1)Nc1cc(C(F)(F)F)cc(C(F)(F)F)c1 [7g·2HCl, 2-(4-{[(5Z)-3-[(Acridin-9-yl)methyl]-2,4-dioxo-1,3-thiazolidin-5-ylidene]methyl}phenoxy)-N-[3,5-bis(trifluoromethyl)phenyl]acetamide dihydrochloride] |  |  |  |  |  | 13.2 ± 3.2 | > 50 | > 50 | > 50 | > 50 |
|  |  |  | 32.4 ± 6.3 |  | > 50 |  | > 50 | 47.9 ± 1.4 | COc1cc(NC(=O)COc2ccc(/C=C3\SC(=O)N(Cc4cccc5cc6ccccc6nc45)C3=O)cc2)cc(OC)c1 [8b·HCl, 2-(4-{[(5Z)-3-[(Acridin-4-yl)methyl]-2,4-dioxo-1,3-thiazolidin-5-ylidene]methyl}phenoxy)-N-(3,5-dimethoxyphenyl)acetamide hydrochloride] |  |  |  |  |  | > 50 | > 50 | > 50 | > 50 | > 50 |
|  |  |  | 15.2 ± 3.4 |  | 34 ± 6.05 |  | > 50 | 6.9 ± 0.2 | O=C(COc1ccc(/C=C2\SC(=O)N(Cc3c4ccccc4nc4ccccc34)C2=O)cc1)Nc1cccc(C(F)(F)F)c1 [7f·2HCl, 2-(4-{[(5Z)-3-[(Acridin-9-yl)methyl]-2,4-dioxo-1,3-thiazolidin-5-ylidene]methyl}phenoxy)-N-[3-(trifluoromethyl)phenyl]acetamide dihydrochloride] |  |  |  |  |  | 7.7 ± 1.5 | 39.5 ± 6.5 | 27.4 ± 5.9 | 9.82 ± 1.92 | > 50 |
|  |  |  | 26.7 ± 9.01 |  | > 50 |  | > 50 | 25.1 ± 6.4 | COc1cc(/C=C2\SC(=O)N(Cc3c4ccccc4nc4ccccc34)C2=O)ccc1OCC(=O)Nc1cc(C(F)(F)F)cc(C(F)(F)F)c1 [12g·2HCl, 2-(4-{[(5Z)-3-[(Acridin-9-yl)methyl]-2,4-dioxo-1,3-thiazolidin-5-ylidene]methyl}-2-methoxyphenoxy)-N-[3,5-bis(trifluoromethyl)phenyl]acetamide dihydrochloride] |  |  |  |  |  | > 50 | > 50 | > 50 | > 50 | > 50 |
|  |  |  | 13.1 ± 2.3 |  | 17 ± 1.35 |  | > 50 | 17.7 ± 4.04 | O=C(COc1ccc(/C=C2\SC(=O)N(Cc3c4ccccc4nc4ccccc34)C2=O)cc1)Nc1ccccc1 [7a·2HCl, 2-(4-{[(5Z)-3-[(Acridin-9-yl)methyl]-2,4-dioxo-1,3-thiazolidin-5-ylidene]methyl}phenoxy)-N-phenylacetamide dihydrochloride] |  |  |  |  |  | 17.6 ± 4.3 | 29.9 ± 7.2 | > 50 | > 50 | > 50 |
|  |  |  | 8.6 ± 2.9 |  | > 50 |  | > 50 | 4.55 ± 0.35 | O=C(COc1ccc(/C=C2\SC(=O)N(Cc3c4ccccc4nc4ccccc34)C2=O)cc1)Nc1ccc([N+](=O)[O-])cc1 [7d·2HCl, 2-(4-{[(5Z)-3-[(Acridin-9-yl)methyl]-2,4-dioxo-1,3-thiazolidin-5-ylidene]methyl}phenoxy)-N-(4-nitrophenyl)acetamide dihydrochloride] |  |  |  |  |  | > 50 | > 50 | > 50 | > 50 | > 50 |
|  |  |  | 6.55 ± 1.65 |  | > 50 |  | 15 ± 1.35 | 18.2 ± 5.1 | COc1cc(/C=C2\SC(=O)N(Cc3c4ccccc4nc4ccccc34)C2=O)ccc1OCC(=O)Nc1ccccc1 [Compound 12a·2HCl, 2-(4-{[(5Z)-3-[(Acridin-9-yl)methyl]-2,4-dioxo-1,3-thiazolidin-5-ylidene]methyl}-2-methoxyphenoxy)-N-phenylacetamide dihydrochloride] |  |  |  |  |  | 19.3 ± 1.1 | 35.5 ± 4.5 | > 50 | > 50 | > 50 |
|  |  |  | 29.2 ± 3.7 |  | > 50 |  | > 50 | 13.2 ± 4.9 | COc1cc(/C=C2\SC(=O)N(Cc3c4ccccc4nc4ccccc34)C2=O)ccc1OCC(=O)Nc1ccccc1C(F)(F)F [12e·2HCl, 2-(4-{[(5Z)-3-[(Acridin-9-yl)methyl]-2,4-dioxo-1,3-thiazolidin-5-ylidene]methyl}-2-methoxyphenoxy)-N-[2-(trifluoromethyl)phenyl]acetamide dihydrochloride] |  |  |  |  |  | > 50 | > 50 | > 50 | > 50 | > 50 |
|  |  |  | 27.3 ± 3.75 |  | > 50 |  | 15 ± 1.4 | 11.9 ± 7.4 | COc1cc(NC(=O)COc2ccc(/C=C3\SC(=O)N(Cc4c5ccccc5nc5ccccc45)C3=O)cc2OC)cc(OC)c1 [12b·2HCl, 2-(4-{[(5Z)-3-[(Acridin-9-yl)methyl]-2,4-dioxo-1,3-thiazolidin-5-ylidene]methyl}-2-methoxyphenoxy)-N-(3,5-dimethoxyphenyl)acetamide dihydrochloride] |  |  |  |  |  | 12.4 ± 1.9 | 29.6 ± 4.4 | > 50 | > 50 | > 50 |
